Test systems include LOX IMVI melanoma; TK-10 renal; SK-MEL-5 melanoma; U251 CNS; HL-60(TB) leukemia; HCC-2998 colon; MALME-3M melanoma; HCT-116 colon; SN12C renal.
Holding throughout (experiment): NCI anticancer screen, dose series, 48 h

Structures are written as SMILES.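 All cell lines were grown in 96-well plates and treated with compound for 48 hours. GI50 marks 50% less growth. The concentration for full growth arrest is given as TGI.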

For the compound `Cn1c(=O)c(C(c2ccc([N+](=O)[O-])cc2)c2c(O)c3ccccc3n(C)c2=O)cc2ccccc21` (configuration not stated), the TGI is above 100 µM with LOX IMVI melanoma; 84.7 µM in the assay with TK-10 renal; above 100 µM in the assay with SK-MEL-5 melanoma; 66.8 µM in the assay with U251 CNS; above 100 µM in the assay on HL-60(TB) leukemia; above 100 µM with HCC-2998 colon. Besides, the figures for the TGI in the assay with MALME-3M melanoma, with HCT-116 colon and with SN12C renal were 73.2 µM, above 100 µM and above 100 µM, respectively.

Regarding `C1=CC2SSSC2C1` (configuration not stated), the TGI in the assay with LOX IMVI melanoma, in the assay on TK-10 renal, in the assay on SK-MEL-5 melanoma, with U251 CNS, in the assay on HL-60(TB) leukemia and with HCC-2998 colon was above 100 µM throughout. The TGI with MALME-3M melanoma, in the assay on HCT-116 colon and in the assay on SN12C renal was above 100 µM throughout.

`NCC1Nc2ccccc2[C@@H](O)C1O` (some centres not stated): the TGI with LOX IMVI melanoma, in the assay with TK-10 renal, in the assay on SK-MEL-5 melanoma, with U251 CNS, with HL-60(TB) leukemia and with HCC-2998 colon was above 100 µM throughout. The TGI with MALME-3M melanoma, in the assay on HCT-116 colon and in the assay on SN12C renal was above 100 µM in each case.

As for `Clc1nc(Cl)c(Cl)c(-c2ccccc2)n1`, the TGI with LOX IMVI melanoma was 5.59 µM; in the assay with TK-10 renal, 32.9 µM; in the assay with SK-MEL-5 melanoma it was 11.8 µM; with U251 CNS, 30.3 µM; in the assay on HL-60(TB) leukemia, above 100 µM; in the assay on HCC-2998 colon it was 78 µM. Also, the TGI in the assay with MALME-3M melanoma stood at 53.7 µM; in the assay on SN12C renal, 53.9 µM.

In the case of `NCCCCN(CCCN)/[N+]([O-])=N\O`, the TGI in the assay on SK-MEL-5 melanoma, with U251 CNS, in the assay with HL-60(TB) leukemia, with HCC-2998 colon, in the assay on MALME-3M melanoma and in the assay on HCT-116 colon was above 100 µM in each case. For the same compound, the TGI in the assay on SN12C renal is above 100 µM.

Consider `Clc1ccc(C2=Nn3c(COc4ccccc4Cl)nnc3SC2)c(Cl)c1`, for which the GI50 with LOX IMVI melanoma is 15.2 µM; in the assay with TK-10 renal, 26.5 µM; with SK-MEL-5 melanoma, 12.6 µM; in the assay with U251 CNS it was 14.2 µM; in the assay on HL-60(TB) leukemia, 19.4 µM; with MALME-3M melanoma it was 20.3 µM. Also, the GI50 in the assay with HCT-116 colon was 14.7 µM. For the same compound, the TGI in the assay on LOX IMVI melanoma turned out to be 28.7 µM; in the assay with TK-10 renal it was 95.4 µM; in the assay with SK-MEL-5 melanoma, 28.5 µM; with U251 CNS, 45.8 µM; with HL-60(TB) leukemia, 75.4 µM; in the assay with MALME-3M melanoma it was 70.6 µM. For the same compound, the TGI in the assay with HCT-116 colon is 27.9 µM.

In the case of `COC1(OC)C2(Cl)C(Cl)=C(Cl)C1(Cl)C1C=CC=CC12` (configuration not stated), the TGI with LOX IMVI melanoma, in the assay with TK-10 renal, in the assay with SK-MEL-5 melanoma, in the assay with U251 CNS, in the assay on HL-60(TB) leukemia and with HCC-2998 colon was above 100 µM in each case. The TGI in the assay on MALME-3M melanoma, in the assay on HCT-116 colon and in the assay on SN12C renal was above 100 µM in each case.

In the case of `NC(N)=N/N=C(\c1nc2ccc([N+](=O)[O-])cc2[nH]c1=O)C(O)c1ccc([N+](=O)[O-])cc1` (configuration not stated), the TGI was above 100 µM with LOX IMVI melanoma; above 100 µM in the assay on SK-MEL-5 melanoma; above 100 µM with U251 CNS; above 100 µM with HL-60(TB) leukemia; 79.8 µM in the assay on HCC-2998 colon; above 100 µM in the assay on MALME-3M melanoma. Further, the TGI in the assay with HCT-116 colon and in the assay on SN12C renal was above 100 µM in each case.

As to `Cc1ccn2c(c1)nc1nc3ccccc3nc12`, the TGI in the assay with LOX IMVI melanoma, with TK-10 renal, in the assay with SK-MEL-5 melanoma, with U251 CNS and with HL-60(TB) leukemia was above 100 µM each time.

As to `CC(C)C(Nc1c2ccccc2nc2ccccc12)C(=O)O` (configuration not stated), the TGI in the assay on LOX IMVI melanoma, with TK-10 renal, in the assay on U251 CNS, in the assay with HL-60(TB) leukemia, in the assay with HCC-2998 colon and with MALME-3M melanoma was above 100 µM throughout. For the same compound, the TGI in the assay with HCT-116 colon and in the assay with SN12C renal was above 100 µM in each case.

For `Cc1cc(C(=O)Nc2ncc(Cc3cccc(C(F)(F)F)c3)s2)c2ccccc2n1`, the GI50 was 1.03 µM in the assay with SK-MEL-5 melanoma; 2.92 µM in the assay on U251 CNS; 2.21 µM with HL-60(TB) leukemia; 1.11 µM with HCC-2998 colon; 3.51 µM in the assay on MALME-3M melanoma; 1.29 µM in the assay with HCT-116 colon. For the same compound, in the assay with SN12C renal, the GI50 is 3.62 µM. Besides, the TGI in the assay with SK-MEL-5 melanoma was above 100 µM; in the assay on U251 CNS, above 100 µM; in the assay with HL-60(TB) leukemia, 5.38 µM; with HCC-2998 colon, above 100 µM; in the assay on MALME-3M melanoma it was above 100 µM; in the assay on HCT-116 colon, above 100 µM. Also, in the assay with SN12C renal, the TGI is above 100 µM.

In the case of `c1ccc(CNn2nnc3ccccc32)cc1`, the TGI with LOX IMVI melanoma, with TK-10 renal, in the assay on SK-MEL-5 melanoma, in the assay on HL-60(TB) leukemia, in the assay with HCC-2998 colon and in the assay on MALME-3M melanoma was above 100 µM each time. Also, the TGI in the assay on SN12C renal is above 100 µM.

Values taken from PubChem BioAssay (NCI).
